# Test results as given in US20170305943A1, “COMPOUNDS FOR THE TREATMENT OF BACTERIAL INFECTIONS” (priority 2014, published 2017).
# System: Clostridium difficile (Isolate ID ATCC 9689)
# Experiment: Bacterial Assay: Determination of Antibacterial Activity (MIC, broth microdilution or agar dilution)
# Format: cell-based
# Details: Clostridioides difficile, ATCC9689, 48 h, read-out: C. difficile MIC Activity Range
# Protocol: Bacterial Assay: Determination of Antibacterial Activity Compounds of the invention were tested for antimicrobial activity by susceptibility testing in liquid or on solid media. Minimum inhibitory concentrations (MICs) for compounds against each strain were determined by the broth microdilution or agar dilution method according to the guidelines of the Clinical Laboratories and Standards Institute, formerly the National Committee for Clinical Laboratory Standards (Clinical Laboratories and Standards Institute. Methods for Dilution Antimicrobial Susceptibility Tests for Bacteria That Grow Anaerobically; Approved Standard-Seventh Edition. Document M11-A7, CLSI, Wayne, Pa., 2007, Clinical Laboratories and Standards Institute). Briefly MICs were determined by visible inspection after 48 hours of growth in the presence of compounds, cultures were grown at 37° C. in anaerobic gas packs using reinforced clostridial medium supplemented with 0.1% defribrinated horse blood. The bacterial strains tested include C. difficile (Clostridium difficile (Isolate ID ATCC 9689)) (Table 2) and two drug resistant clinical isolates (Clostridium difficile (Isolate ID BI-9) and Clostridium difficile (Isolate ID 027-01) (Table 3).
# MICs were determined to be within the activity ranges “A” activity≦1.01 μg/mL; “B” activity>1.0 μg/mL-4.0 μg/mL; “C” activity>4.0 μg/mL-16 μg/mL
row,Structure (SMILES),MIC
1,"NC(=O)c1c(F)ccc(OC(COC(=O)Cn2cccc2)c2nc(-c3ccc(C(F)(F)F)cc3)c(Br)o2)c1F (stereo not drawn) [Compound 40, 2-{5-bromo-4-[4-(trifluoromethyl)phenyl]-1,3-oxazol-2-yl}-2-(3-carbamoyl-2,4-difluorophenoxy)ethyl 1H-pyrrol-l-ylacetate]",< 1.01 µg/mL
2,"NC(=O)c1c(F)ccc(O[C@@H](CO)c2nc(-c3ccc(C(F)(F)F)cc3)c(Br)o2)c1F [Compound 41, 3-[(1S)-1-{5-bromo-4-[4-(trifluoromethyl)phenyl]-1,3-oxazol-2-yl}-2-hydroxyethoxy]-2,6-difluorobenzamide]",1 to 4 µg/mL
3,"NC(=O)c1c(F)ccc(OC(COC(=O)CCCN2C(=O)c3ccccc3C2=O)c2nc(-c3ccc(C(F)(F)F)cc3)c(Br)o2)c1F (stereo not drawn) [Compound 42, 2-{5-bromo-4-[4-(trifluoromethyl)phenyl]-1,3-oxazol-2-yl}-2-(3-carbamoyl-2,4-difluorophenoxy)ethyl 4-(1,3-dioxo-1,3-dihydro-2H-isoindo1-2-yl)butanoate]",< 1.01 µg/mL
4,"NC(=O)c1c(F)ccc(OC(COP(=O)(O)O)c2nc(-c3ccc(C(F)(F)F)cc3)c(Br)o2)c1F (stereo not drawn) [Compound 43, 2-{5-bromo-4-[4-(trifluoromethyl)phenyl]-1,3-oxazol-2-yl}-2-(3-carbamoyl-2,4-difluorophenoxy)ethyl dihydrogen phosphate]",1 to 4 µg/mL
5,"CCOC(=O)COCC(Oc1ccc(F)c(C(N)=O)c1F)c1nc(-c2ccc(C(F)(F)F)cc2)c(Br)o1 (stereo not drawn) [Compound 44, ethyl [2-{5-bromo-4-[4-(trifluoromethyl)phenyl]-1,3-oxazol-2-yl}-2-(3-carbamoyl-2,4-difluorophenoxy)ethoxy]acetate]",4 to 16 µg/mL
6,"CC(=O)OCCCC(Oc1ccc(F)c(C(N)=O)c1F)c1nc(-c2ccc(C(F)(F)F)cc2)c(Br)o1 (stereo not drawn) [Compound 45, 4-{5-bromo-4-[4-(trifluoromethyl)phenyl]-1,3-oxazol-2-yl}-4-(3-carbamoyl-2,4-difluorophenoxy)butyl acetate]",1 to 4 µg/mL
7,"NC(=O)c1c(F)ccc(OC(CCCO)c2nc(-c3ccc(C(F)(F)F)cc3)c(Br)o2)c1F (stereo not drawn) [Compound 46, 3-(1-{5-bromo-4-[4-(trifluoromethyl)phenyl]-1,3-oxazol-2-yl}-4-hydroxybutoxy)-2,6-difluorobenzamide]",1 to 4 µg/mL
8,"CNC(=O)CCC(Oc1ccc(F)c(C(N)=O)c1F)c1nc(-c2ccc(C(F)(F)F)cc2)c(Br)o1 (stereo not drawn) [Compound 48, 3-[1-{5-bromo-4-[4-(trifluoromethyl)phenyl]-1,3-oxazol-2-yl}-4-(methylamino)-4-oxobutoxy]-2,6-difluorobenzamide]",1 to 4 µg/mL
9,"CNC(=O)OCC(Oc1ccc(F)c(C(N)=O)c1F)c1nc(-c2ccc(C(F)(F)F)cc2)c(Br)o1 (stereo not drawn) [Compound 50, 2-{5-bromo-4-[4-(trifluoromethyl)phenyl]-1,3-oxazol-2-yl}-2-(3-carbamoyl-2,4-difluorophenoxy)ethyl methylcarbamate]",< 1.01 µg/mL
10,"CC(=O)OCC(Oc1ccc(F)c(C(N)=O)c1F)c1nc(-c2ccc(OC(F)(F)F)cc2)c(Br)o1 (stereo not drawn) [Compound 51, 2-{5-bromo-4-[4-(trifluoromethoxy)phenyl]-1,3-oxazol-2-yl}-2-(3-carbamoyl-2,4-difluorophenoxy)ethyl acetate]",< 1.01 µg/mL
11,"NC(=O)c1c(F)ccc(OC(CO)c2nc(-c3ccc(OC(F)(F)F)cc3)c(Br)o2)c1F (stereo not drawn) [Compound 52, 3-(1-{5-bromo-4-[4-(trifluoromethoxy)phenyl]-1,3-oxazol-2-yl}-2-hydroxyethoxy)-2,6-difluorobenzamide]",< 1.01 µg/mL
12,"NC(=O)c1c(F)ccc(OC(CCC(O)CO)c2nc(-c3ccc(C(F)(F)F)cc3)c(Br)o2)c1F (stereo not drawn) [Compound 53, 3-[(1-{5-bromo-4-[4-(trifluoromethyl)phenyl]-1,3-oxazol-2-yl}-4,5-dihydroxypentyl)oxy]-2,6-difluorobenzamide]",1 to 4 µg/mL
13,"COC(=O)CCNC(=O)OCC(Oc1ccc(F)c(C(N)=O)c1F)c1nc(-c2ccc(C(F)(F)F)cc2)c(Br)o1 (stereo not drawn) [Compound 54, methyl N-{[2-{5-bromo-4-[4-(trifluoromethyl)phenyl]-1,3-oxazol-2-yl}-2-(3-carbamoyl-2,4-difluorophenoxy)ethoxy]carbonyl}-beta-alaninate]",1 to 4 µg/mL
14,"CC(C)(C)OC(=O)NCCNC(=O)OCC(Oc1ccc(F)c(C(N)=O)c1F)c1nc(-c2ccc(C(F)(F)F)cc2)c(Br)o1 (stereo not drawn) [Compound 55, 2-{5-bromo-4-[4-(trifluoromethyl)phenyl]-1,3-oxazol-2-yl}-2-(3-carbamoyl-2,4-difluorophenoxy)ethyl tert-butyl ethane-1,2-diylbiscarbamate]",1 to 4 µg/mL
15,"CN(CCNC(=O)OCC(Oc1ccc(F)c(C(N)=O)c1F)c1nc(-c2ccc(C(F)(F)F)cc2)c(Br)o1)C(=O)OC(C)(C)C (stereo not drawn) [Compound 56, tert-butyl [2-({[2-{5-bromo-4-[4-(trifluoromethyl)phenyl]-1,3-oxazol-2-yl}-2-(3-carbamoyl-2,4-difluorophenoxy)ethoxy]carbonyl}amino)ethyl]methyl carbamate (non-preferred name)]",1 to 4 µg/mL
16,"NC(=O)c1c(F)ccc(OC(COC(=O)N2CCOCC2)c2nc(-c3ccc(C(F)(F)F)cc3)c(Br)o2)c1F (stereo not drawn) [Compound 58, 2-{5-bromo-4-[4-(trifluoromethyl)phenyl]-1,3-oxazol-2-yl}-2-(3-carbamoyl-2,4-difluorophenoxy)ethyl morpholine-4-carboxylate]",4 to 16 µg/mL
17,"NC(=O)c1c(F)ccc(OC(COC(=O)NCCO)c2nc(-c3ccc(C(F)(F)F)cc3)c(Br)o2)c1F (stereo not drawn) [Compound 59, 2-{5-bromo-4-[4-(trifluoromethyl)phenyl]-1,3-oxazol-2-yl}-2-(3-carbamoyl-2,4-difluorophenoxy)ethyl (2-hydroxyethyl)carbamate]",< 1.01 µg/mL
18,"COCCNC(=O)OCC(Oc1ccc(F)c(C(N)=O)c1F)c1nc(-c2ccc(C(F)(F)F)cc2)c(Br)o1 (stereo not drawn) [Compound 60, 2-{5-bromo-4-[4-(trifluoromethyl)phenyl]-1,3-oxazol-2-yl}-2-(3-carbamoyl-2,4-difluorophenoxy)ethyl (2-methoxyethyl)carbamate]",< 1.01 µg/mL
19,"NC(=O)c1c(F)ccc(OC(COC(=O)NCc2ccccn2)c2nc(-c3ccc(C(F)(F)F)cc3)c(Br)o2)c1F (stereo not drawn) [Compound 61, 2-{5-bromo-4-[4-(trifluoromethyl)phenyl]-1,3-oxazol-2-yl}-2-(3-carbamoyl-2,4-difluorophenoxy)ethyl (pyridin-2-ylmethyl)carbamate]",1 to 4 µg/mL
20,"NC(=O)c1c(F)ccc(OC(COC(=O)NCc2cccnc2)c2nc(-c3ccc(C(F)(F)F)cc3)c(Br)o2)c1F (stereo not drawn) [Compound 62, 2-{5-bromo-4-[4-(trifluoromethyl)phenyl]-1,3-oxazol-2-yl}-2-(3-carbamoyl-2,4-difluorophenoxy)ethyl (pyridin-3-ylmethyl)carbamate]",1 to 4 µg/mL
21,"NC(=O)c1c(F)ccc(OC(COC(=O)NCc2ccncc2)c2nc(-c3ccc(C(F)(F)F)cc3)c(Br)o2)c1F (stereo not drawn) [Compound 63, 2-{5-bromo-4-[4-(trifluoromethyl)phenyl]-1,3-oxazol-2-yl}-2-(3-carbamoyl-2,4-difluorophenoxy)ethyl (pyridin-4-ylmethyl)carbamate]",< 1.01 µg/mL
22,"Cc1nnc(CNC(=O)OCC(Oc2ccc(F)c(C(N)=O)c2F)c2nc(-c3ccc(C(F)(F)F)cc3)c(Br)o2)o1 (stereo not drawn) [Compound 65, 2-{5-bromo-4-[4-(trifluoromethyl)phenyl]-1,3-oxazol-2-yl}-2-(3-carbamoyl-2,4-difluorophenoxy)ethyl [(5-methyl-1,3,4-oxadiazol-2-yl)methyl]carbamate]",1 to 4 µg/mL
23,"NC(=O)c1c(F)ccc(OC(COC(=O)Nc2ccncc2)c2nc(-c3ccc(C(F)(F)F)cc3)c(Br)o2)c1F (stereo not drawn) [Compound 67, 2-{5-bromo-4-[4-(trifluoromethyl)phenyl]-1,3-oxazol-2-yl}-2-(3-carbamoyl-2,4-difluorophenoxy)ethyl pyridin-4-ylcarbamate]",1 to 4 µg/mL
24,"Cc1noc(CNC(=O)OCC(Oc2ccc(F)c(C(N)=O)c2F)c2nc(-c3ccc(C(F)(F)F)cc3)c(Br)o2)n1 (stereo not drawn) [Compound 68, 2-{5-bromo-4-[4-(trifluoromethyl)phenyl]-1,3-oxazol-2-yl}-2-(3-carbamoyl-2,4-difluorophenoxy)ethyl [(3-methyl-1,2,4-oxadiazol-5-yl)methyl]carbamate]",1 to 4 µg/mL
25,"CSc1oc(C(CO)Oc2ccc(F)c(C(N)=O)c2F)nc1-c1ccc(C(F)(F)F)cc1 (stereo not drawn) [Compound 69, 2,6-difluoro-3-(2-hydroxy-1-{5-(methylthio)-4-[4-(trifluoromethyl)phenyl]-1,3-oxazol-2-yl}ethoxy)benzamide]",< 1.01 µg/mL
26,"NC(=O)c1c(F)ccc(O[C@H](COC(=O)CCC(=O)O)c2nc(-c3ccc(C(F)(F)F)cc3)c(Br)o2)c1F [Compound 70, 4-[(2R)-2-{5-bromo-4-[4-(trifluoromethyl)phenyl]-1,3-oxazol-2-yl}-2-(3-carbamoyl-2,4-difluorophenoxy)ethoxy]-4-oxobutanoic acid]",< 1.01 µg/mL
27,"CN(Cc1ccncc1)C(=O)OCC(Oc1ccc(F)c(C(N)=O)c1F)c1nc(-c2ccc(C(F)(F)F)cc2)c(Br)o1 (stereo not drawn) [Compound 71, 2-{5-bromo-4-[4-(trifluoromethyl)phenyl]-1,3-oxazol-2-yl}-2-(3-carbamoyl-2,4-difluorophenoxy)ethyl methyl(pyridin-4-ylmethyl)carbamate]",4 to 16 µg/mL
